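Values below derive from 48-hour exposures of cells grown in 96-well plates, with endpoints linearly interpolated between the two concentrations bracketing the appropriate inhibition level. TGI marks complete inhibition of growth.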
Assays:
Test in all cases: NCI anticancer screen, dose series, 48 h
UACC-62 melanoma = tested on: UACC-62 melanoma
A549 NSCLC = tested on: A549 NSCLC
HS 578T breast = tested on: HS 578T breast
MALME-3M melanoma = tested on: MALME-3M melanoma
SK-MEL-28 melanoma = tested on: SK-MEL-28 melanoma
NCI-H226 lung = tested on: NCI-H226 lung
SF-539 CNS = tested on: SF-539 CNS
SF-268 CNS = tested on: SF-268 CNS
UO-31 renal = tested on: UO-31 renal
LOX IMVI melanoma = tested on: LOX IMVI melanoma
KM12 colon = tested on: KM12 colon
HCT-116 colon = tested on: HCT-116 colon
NCI/ADR-RES ovarian = tested on: NCI/ADR-RES ovarian
IGROV1 ovarian = tested on: IGROV1 ovarian
HL-60(TB) leukemia = tested on: HL-60(TB) leukemia
RPMI-8226 leukemia = tested on: RPMI-8226 leukemia
CCRF-CEM leukemia = tested on: CCRF-CEM leukemia
COLO 205 colon = tested on: COLO 205 colon
MDA-MB-435 = tested on: MDA-MB-435
CAKI-1 renal = tested on: CAKI-1 renal

| Structure (SMILES) | TGI (UACC-62 melanoma) [µM] | TGI (A549 NSCLC) [µM] | TGI (HS 578T breast) [µM] | TGI (MALME-3M melanoma) [µM] | TGI (SK-MEL-28 melanoma) [µM] | TGI (NCI-H226 lung) [µM] | TGI (SF-539 CNS) [µM] | TGI (SF-268 CNS) [µM] | TGI (UO-31 renal) [µM] | TGI (LOX IMVI melanoma) [µM] | TGI (KM12 colon) [µM] | TGI (HCT-116 colon) [µM] | TGI (NCI/ADR-RES ovarian) [µM] | TGI (IGROV1 ovarian) [µM] | TGI (HL-60(TB) leukemia) [µM] | TGI (RPMI-8226 leukemia) [µM] | TGI (CCRF-CEM leukemia) [µM] | TGI (COLO 205 colon) [µM] | TGI (MDA-MB-435) [µM] | TGI (CAKI-1 renal) [µM] |
| --- | --- | --- | --- | --- | --- | --- | --- | --- | --- | --- | --- | --- | --- | --- | --- | --- | --- | --- | --- | --- |
| CCC(=O)N/S(=N/S(=O)(=O)c1ccccc1)C(Cl)(Cl)Cl (stereo not given) | > 100 | > 100 | > 100 | > 100 | > 100 | > 100 | > 100 | > 100 | > 100 | > 100 | > 100 | > 100 | > 100 | > 100 | > 100 | > 100 | > 100 | > 100 | > 100 | – |
| FC(F)(F)c1ccc2c(c1)nc1n2C(c2c(Cl)cccc2Cl)SC1 (stereo not given) | 34.1 | 38.6 | 59.3 | 42.1 | 43.3 | 58.2 | 43 | 47.2 | 31.8 | > 100 | 27.2 | 29.5 | 58.9 | 47.7 | 67.5 | – | – | – | 41.4 | 35 |
| CC(C)(C)C(=O)Oc1ccc(/C=C/C(=O)c2ccc(OC(=O)C(C)(C)C)cc2)cc1 | > 100 | > 100 | 86.9 | > 100 | > 100 | > 100 | > 100 | > 100 | – | > 100 | 38.5 | 71.4 | > 100 | > 100 | 75.5 | – | 20.2 | > 100 | > 100 | 96.7 |
| CC[C@@H](CCCCC1CC[C@H]2CC(=O)C[C@@H]12)OC (stereo not given in full) | > 100 | > 100 | > 100 | > 100 | > 100 | > 100 | > 100 | > 100 | – | > 100 | > 100 | > 100 | > 100 | > 100 | > 100 | > 100 | > 100 | > 100 | > 100 | > 100 |
| CC(=O)O[C@H]1CC[C@@]2(C)C(=CC[C@@H]3[C@@H]2CC[C@]2(C)c4c(n[nH]c4C)C[C@@H]32)C1 | 25 | 33.9 | 48 | 12.7 | 45.2 | 35.2 | – | 48.7 | 33.8 | > 100 | 37.4 | 44.5 | 85.1 | 38.8 | 28.4 | – | 25.1 | 35.4 | 33.9 | 32.5 |
| COc1ccc2c(O)c(S(=O)(=O)c3ccc(C)cc3)c(=O)oc2c1OC | > 100 | > 100 | > 100 | > 100 | > 100 | > 100 | > 100 | > 100 | > 100 | – | > 100 | > 100 | > 100 | > 100 | > 100 | > 100 | > 100 | > 100 | > 100 | > 100 |

Reference: PubChem BioAssay (NCI)
